Data from patent EP0604653A1, “COMPLEX OF COMPOUND HAVING CHALCONE SKELETON” (TAISHO PHARMACEUTICAL CO. LTD, priority 1991, dated 1993).

Columns and labels:
[1] = Test of absorbability after oral capsule administration (cross-over, Latin square); type: in vivo; conditions: beagles, dose of SU-740 100 mg/kg, FIG. 5
Procedure: The test was conducted by a cross-over testing method according to a Latin square method using 15 beagles divided into three groups each consisting of 5 test animals. Each sample was put in a capsule and orally given to the animal so as to make a dose of SU-740 become 100 mg/kg.

[2] = system: Histamine-Induced Ulceration; assay: Histamine-induced ulceration, area of lesions; type: in vivo; conditions: rats, i.d., dose of SU-740 31.4 mg/kg (Complex 200.0 mg/kg); histamine 300 mg/kg i.p. 3 hours later, lesion area 4 hours thereafter
Procedure: The test was carried out in accordance with the method described in M. Muramatsu et al., Arzeneim. Forsch., Vol. 40(I)1, p. 49 (1990). The sample dispersed in a 1 % gum arabic suspension was intraduodenally administrated to rats having been deprived of food for 24 hours so as to make a dose of SU-740 become 31.4 mg/kg. Three hours later, 300 mg/kg of histamine was intraperitoneally administered, and 4 hours thereafter the abdomen was opened, and the area of lesions was measured to evaluate the inhibitory effect on mucosal lesions.

[3] = system: Prostaglandin (PG) Metabolic Enzyme; assay: PG metabolic enzyme activity in excised gastric mucosa after dosing (decomposition of PGE₁ as index); type: in vivo; conditions: rats, i.d., dose of SU-740 31.4 mg/kg (Complex 200.0 mg/kg)
Procedure: The test was carried out in accordance with the method described in M. Muramatsu et al., Biochemical Pharmacology, Vol. 33(16), p. 2629 (1984). The sample dispersed in a 1 % gum arabic suspension was intraduodenally administered to rats having been deprived of food for 24 hours so as to make a dose of SU-740 become 31.4 mg/kg. Two hours later, the gastric mucosa was excised, and a PG metabolic enzyme was extracted therefrom and analyzed with a spectrophotometer. The effect was examined taking decomposition of PGE₁ as an index.

[4] = system: Gastric Acid Secretion; assay: Gastric acid secretion in conscious dog with chronic fistula, stimulated by 2-deoxy-D-glucose; type: in vivo; conditions: p.o., table doses: SU-740 200.0 mg/kg, Complex 200.0 (31.4 as SU-740) mg/kg
Procedure: The test was carried out in accordance with the method described in Gastroenterology, Vol. 85, p. 900 (1983). A dog to which a fistula had been chronically fitted was deprived of food for 20 hours. […] One hour later, 300 mg/kg of 2-deoxy-D-glucose was intravenously injected. Two hours from the injection, the gastric acid secretion was measured.

[5] = system: PGE₂ Content in Rat Gastric Mucosa; assay: PGE₂ content in gastric mucosa after dosing (radioimmunoassay); type: in vivo; conditions: rats, i.d., dose of SU-740 31.4 mg/kg (Complex 200.0 mg/kg)
Procedure: The test was carried out in accordance with the method described in M. Muramatsu et al., Life Science, Vol. 41, p. 315 (1987). The sample dispersed in a 1 % gum arabic suspension was intraduodenally administered to rats having been deprived of food for 24 hours so as to make a dose of SU -740 become 31.4 mg/kg. After 24 hours from the administration, the gastric mucosa was excised under anesthesia with ether and 2 mℓ of a 20 µM anhydrous solution of Indomethacin was added thereto, followed by homogenization. After allowing to stand for 1 hour, the homogenate was subjected to centrifugation at 3000 rpm for 10 minutes and the supernatant liquor (PG mixture) was lyophilized. The resulting PG mixture was suspended in distilled water, and extracted with methanol by means of a column (vac elute). Then the extract was lyophilized, and subjected to measurement by means of a radioimmunoassay kit.

[6] = system: Hydrochloric Acid-Induced Lesion; assay: Hydrochloric acid-induced gastric mucosal lesion, length of ulcerations; type: in vivo, rat; conditions: rats, intraduodenal, dose of SU-740 10, 35 or 60 mg/kg, 0.6 N hydrochloric acid 1 hour later; FIG. 6
Procedure: Seventy-two rats divided into 9 groups each consisting of 8 animals were used. A 0.2 mℓ/100 g of the sample dispersed in a 5 % gum arabic suspension was intraduodenally administered to a rat so as to make a dose of SU-740 become 10 mg, 35 mg or 60 mg per kg-body weight. β-Cyclodextrin was similarly administered at a dose corresponding to the SU-740 content in the complex obtained in Example 2. On hour later, 1 mℓ of 0.6 N hydrochloric acid was administered, and 1 hour thereafter the abdomen was opened, and the length of the ulcerations was measured to evaluate the inhibitory effect on mucosal lesions.

CC(C)=CCOc1ccc(C(=O)/C=C/c2ccc(C(C)(C)C)cc2)c(OCC(=O)O)c1 [SU-740, 4-t-butyl-2'-carboxymethoxy-4'-(3-methyl-2-butenyloxy)chalcone]
absorbability [1]: scarcely absorbed | Inhibitory Ratio (%) [2]: 66.7% | % of Control ([3]; PG metabolic enzyme activity): 81.3% | PG Metabolic Enzyme Activity (nmol/mg protein/min) ([3]; gastric mucosa excised two hours later): 0.61±0.05 nmol/mg protein/min | Inhibitory Ratio (%) ([4]; gastric acid secretion): 20.9% | Gastric Acid Secretion (mEq/1 hr) ([4]; 2-deoxy-D-glucose 300 mg/kg i.v. one hour later): 12.1±2.1 mEq/1 hr | activity at 31.4 mg/kg ([5]; Rattus norvegicus, intraduodenal, PGE₂ content, read-out: % of Control): 396% | PGE₂ Content (pg/g wet weight) ([5]; gastric mucosa 24 hours after administration): 309.1±57.0 pg/g wet weight

OC[C@H]1O[C@@H]2O[C@H]3[C@H](O)[C@@H](O)[C@@H](O[C@H]4[C@H](O)[C@@H](O)[C@@H](O[C@H]5[C@H](O)[C@@H](O)[C@@H](O[C@H]6[C@H](O)[C@@H](O)[C@@H](O[C@H]7[C@H](O)[C@@H](O)[C@@H](O[C@H]8[C@H](O)[C@@H](O)[C@@H](O[C@H]1[C@H](O)[C@H]2O)O[C@@H]8CO)O[C@@H]7CO)O[C@@H]6CO)O[C@@H]5CO)O[C@@H]4CO)O[C@@H]3CO [β-Cyclodextrin, β-cyclodextrin]
inhibitory effect on mucosal lesions [6]: little effect
